Patent US20180021360A1, “Combination Therapy Regimen For Treatment Of Selected HCV Genotypes” (JANSSEN PHARMACEUTICALS, INC., priority 2016, published 2018)

What was measured:
[1] = Phase-1 drug-drug interaction study of Odalasvir, Simeprevir and Compound (III) in healthy volunteers; type: in vivo, human
Excerpt: The following daily doses were employed:

[2] = Phase 2a open-label combination study, pharmacokinetics; type: in vivo, human
Procedure: A randomized, Phase 2a, open-label study was carried out to evaluate the safety, pharmacokinetics and efficacy of the combination of Compound (III), Odalasvir and Simeprevir in Genotype 1 treatment-naïve subjects with chronic hepatitis C. Other treatment-naïve subjects included Genotype 2, 3, 4, 5 and 6.
The aim of the study was to determine the efficacy, pharmacokinetics (PK), and safety of Compound (II)+Odalasvir±SMV in HCV-infected subjects.
This was an open-label study evaluating various dosing regimens of Compound (III)+Odalasvir±SMV for 6-8 weeks in treatment-nave HCV-infected subjects with varying clinical characteristics (e.g., GT 1 or 3, presence/absence of compensated Child Pugh A cirrhosis). Efficacy, PK and safety evaluations were conducted during and through 24 weeks post dosing. Up to 15 cohorts were enrolled; data was generated from cohorts that have completed dosing.

[3] = PK of single agents vs fixed dose combinations, single dose in healthy volunteers (Example 13); type: in vivo, human; details: mean ± SD
Procedure: SMV (100 mg), ODV (50 mg), and Compound (III) (800 mg) were administered as three different formulations or together as single doses in vivo to healthy volunteers. The arms of the study included: • Arm 1 (Reference Arm): Single oral doses of single agents, one SMV 100-mg capsule, one ODV 50-mg tablet as granule layered solid dispersion with copovidone and poloxamers, and two Compound (III) 400-mg tablets, administered together. • Arm 2: Single oral dose of fixed dose combination (FDC02): SMV 100 mg+ODV 50 mg as a spray dried solid dispersion with HPMC-AS L in a ratio ODV/HPMC-AS L 1/1 w/w+Compound (III) 800 mg • Arm 3: Single oral dose of fixed dose combination (FDC04): SMV 100 mg+ODV 50 mg as a spray dried solid dispersion with HPMC-AS L in a ratio ODV/HPMC-AS L 1/3 w/w+Compound (III) 800 mg • Arm 4: Single oral dose of fixed dose combination (FDC01): SMV 100 mg+ODV 50 mg as a spray dried solid dispersion with copovidone and poloxamers+Compound (III) 800 mg
PK parameters, including Cmax, tmax, AUClast, and AUC∞ were measured for Compound (III), ODV, SMV, and metabolites Compound A-1 and Compound A-3 for each Arm of the study. Arms that included fixed dose combinations (FDC) (Arm 2, Arm 3, and Arm 4) were then compared to a single oral dose (Arm 1, the reference Arm). Table 9, Table 10, Table 11, Table 12 and Table 13 display relevant PK parameters and FIG. 9, FIG. 10, FIG. 11, FIG. 12, and FIG. 13 depict the plasma concentration over time of SMV, ODV, Compound A-1, and Compound A-3 for each Arm of the study.

P-gp = P-gp (Homo sapiens, UniProt P08183); details: cited from earlier work
Chain of P-gp (P08183 whole entry): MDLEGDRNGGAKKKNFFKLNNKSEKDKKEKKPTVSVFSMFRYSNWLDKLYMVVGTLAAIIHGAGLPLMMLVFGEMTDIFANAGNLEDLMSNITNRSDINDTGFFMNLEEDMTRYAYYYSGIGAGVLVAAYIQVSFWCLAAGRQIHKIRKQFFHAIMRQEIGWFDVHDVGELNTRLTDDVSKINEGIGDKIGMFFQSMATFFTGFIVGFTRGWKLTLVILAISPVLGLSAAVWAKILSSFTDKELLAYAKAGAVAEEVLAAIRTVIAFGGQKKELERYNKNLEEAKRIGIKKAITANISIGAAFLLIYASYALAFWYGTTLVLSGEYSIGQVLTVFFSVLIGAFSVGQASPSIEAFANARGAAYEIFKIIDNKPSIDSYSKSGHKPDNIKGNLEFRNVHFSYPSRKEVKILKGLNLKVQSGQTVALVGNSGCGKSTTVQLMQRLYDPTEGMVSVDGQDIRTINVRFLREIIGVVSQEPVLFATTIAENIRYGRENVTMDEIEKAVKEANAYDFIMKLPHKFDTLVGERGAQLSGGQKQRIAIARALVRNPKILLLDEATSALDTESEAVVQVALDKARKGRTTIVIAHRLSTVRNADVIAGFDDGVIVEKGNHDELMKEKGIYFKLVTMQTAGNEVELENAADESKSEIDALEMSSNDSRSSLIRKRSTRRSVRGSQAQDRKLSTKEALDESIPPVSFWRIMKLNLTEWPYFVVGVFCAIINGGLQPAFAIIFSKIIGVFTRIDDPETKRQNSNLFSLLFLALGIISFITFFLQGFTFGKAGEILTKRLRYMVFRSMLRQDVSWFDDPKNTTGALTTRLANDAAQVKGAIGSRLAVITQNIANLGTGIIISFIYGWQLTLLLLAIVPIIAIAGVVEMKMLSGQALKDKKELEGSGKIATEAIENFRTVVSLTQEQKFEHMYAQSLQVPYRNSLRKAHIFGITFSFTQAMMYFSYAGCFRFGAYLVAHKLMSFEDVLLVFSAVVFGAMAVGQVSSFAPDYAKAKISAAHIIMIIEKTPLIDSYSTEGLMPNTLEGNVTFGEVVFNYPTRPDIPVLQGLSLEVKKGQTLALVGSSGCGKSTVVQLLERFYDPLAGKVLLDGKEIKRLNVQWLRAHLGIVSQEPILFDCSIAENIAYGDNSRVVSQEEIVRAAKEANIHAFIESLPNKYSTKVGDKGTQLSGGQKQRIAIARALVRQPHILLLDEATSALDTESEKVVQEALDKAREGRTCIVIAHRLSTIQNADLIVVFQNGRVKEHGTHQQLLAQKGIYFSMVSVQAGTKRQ

MRP2 = MRP2 (Homo sapiens, UniProt Q92887); details: cited from earlier work
Chain of MRP2 (Q92887 whole entry): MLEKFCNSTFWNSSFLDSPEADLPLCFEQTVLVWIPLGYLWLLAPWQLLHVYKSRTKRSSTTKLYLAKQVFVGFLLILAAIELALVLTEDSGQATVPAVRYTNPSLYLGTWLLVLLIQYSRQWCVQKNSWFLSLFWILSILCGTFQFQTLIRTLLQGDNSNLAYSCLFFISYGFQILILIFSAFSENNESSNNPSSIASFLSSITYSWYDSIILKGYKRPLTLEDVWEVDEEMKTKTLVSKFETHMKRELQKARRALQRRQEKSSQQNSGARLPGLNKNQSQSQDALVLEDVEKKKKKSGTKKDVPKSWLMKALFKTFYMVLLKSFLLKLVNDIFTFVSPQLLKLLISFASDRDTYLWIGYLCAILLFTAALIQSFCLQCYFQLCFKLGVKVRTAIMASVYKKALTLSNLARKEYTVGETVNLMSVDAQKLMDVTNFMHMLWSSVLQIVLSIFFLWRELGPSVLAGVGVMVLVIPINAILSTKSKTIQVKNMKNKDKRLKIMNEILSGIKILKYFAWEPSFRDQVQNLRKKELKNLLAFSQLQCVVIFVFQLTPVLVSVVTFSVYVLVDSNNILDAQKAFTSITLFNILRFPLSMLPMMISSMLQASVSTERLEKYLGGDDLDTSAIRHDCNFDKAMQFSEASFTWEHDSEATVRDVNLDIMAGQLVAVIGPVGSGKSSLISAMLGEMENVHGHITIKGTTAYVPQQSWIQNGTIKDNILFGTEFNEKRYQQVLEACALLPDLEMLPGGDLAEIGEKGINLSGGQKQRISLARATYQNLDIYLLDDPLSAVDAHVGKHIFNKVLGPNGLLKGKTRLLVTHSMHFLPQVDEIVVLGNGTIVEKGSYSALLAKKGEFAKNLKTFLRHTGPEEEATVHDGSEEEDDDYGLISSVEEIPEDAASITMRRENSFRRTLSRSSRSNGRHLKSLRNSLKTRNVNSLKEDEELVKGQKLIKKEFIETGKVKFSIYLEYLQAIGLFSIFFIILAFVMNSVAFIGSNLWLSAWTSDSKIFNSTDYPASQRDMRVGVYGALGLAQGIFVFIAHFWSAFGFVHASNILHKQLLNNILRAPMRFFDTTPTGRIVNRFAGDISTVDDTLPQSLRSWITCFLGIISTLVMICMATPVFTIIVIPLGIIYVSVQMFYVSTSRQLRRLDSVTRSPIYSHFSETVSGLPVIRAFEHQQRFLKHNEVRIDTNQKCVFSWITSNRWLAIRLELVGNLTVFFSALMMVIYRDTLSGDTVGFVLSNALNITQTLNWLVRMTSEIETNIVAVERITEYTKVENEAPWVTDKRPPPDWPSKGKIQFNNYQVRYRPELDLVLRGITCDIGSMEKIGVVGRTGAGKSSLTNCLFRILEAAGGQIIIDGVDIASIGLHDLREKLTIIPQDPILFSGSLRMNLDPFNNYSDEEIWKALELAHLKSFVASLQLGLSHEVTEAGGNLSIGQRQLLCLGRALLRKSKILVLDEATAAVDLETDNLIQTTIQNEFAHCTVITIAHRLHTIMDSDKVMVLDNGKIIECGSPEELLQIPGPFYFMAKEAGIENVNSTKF

BSEP = BSEP (Homo sapiens, UniProt O95342); details: cited from earlier work
Chain of BSEP (O95342 whole entry): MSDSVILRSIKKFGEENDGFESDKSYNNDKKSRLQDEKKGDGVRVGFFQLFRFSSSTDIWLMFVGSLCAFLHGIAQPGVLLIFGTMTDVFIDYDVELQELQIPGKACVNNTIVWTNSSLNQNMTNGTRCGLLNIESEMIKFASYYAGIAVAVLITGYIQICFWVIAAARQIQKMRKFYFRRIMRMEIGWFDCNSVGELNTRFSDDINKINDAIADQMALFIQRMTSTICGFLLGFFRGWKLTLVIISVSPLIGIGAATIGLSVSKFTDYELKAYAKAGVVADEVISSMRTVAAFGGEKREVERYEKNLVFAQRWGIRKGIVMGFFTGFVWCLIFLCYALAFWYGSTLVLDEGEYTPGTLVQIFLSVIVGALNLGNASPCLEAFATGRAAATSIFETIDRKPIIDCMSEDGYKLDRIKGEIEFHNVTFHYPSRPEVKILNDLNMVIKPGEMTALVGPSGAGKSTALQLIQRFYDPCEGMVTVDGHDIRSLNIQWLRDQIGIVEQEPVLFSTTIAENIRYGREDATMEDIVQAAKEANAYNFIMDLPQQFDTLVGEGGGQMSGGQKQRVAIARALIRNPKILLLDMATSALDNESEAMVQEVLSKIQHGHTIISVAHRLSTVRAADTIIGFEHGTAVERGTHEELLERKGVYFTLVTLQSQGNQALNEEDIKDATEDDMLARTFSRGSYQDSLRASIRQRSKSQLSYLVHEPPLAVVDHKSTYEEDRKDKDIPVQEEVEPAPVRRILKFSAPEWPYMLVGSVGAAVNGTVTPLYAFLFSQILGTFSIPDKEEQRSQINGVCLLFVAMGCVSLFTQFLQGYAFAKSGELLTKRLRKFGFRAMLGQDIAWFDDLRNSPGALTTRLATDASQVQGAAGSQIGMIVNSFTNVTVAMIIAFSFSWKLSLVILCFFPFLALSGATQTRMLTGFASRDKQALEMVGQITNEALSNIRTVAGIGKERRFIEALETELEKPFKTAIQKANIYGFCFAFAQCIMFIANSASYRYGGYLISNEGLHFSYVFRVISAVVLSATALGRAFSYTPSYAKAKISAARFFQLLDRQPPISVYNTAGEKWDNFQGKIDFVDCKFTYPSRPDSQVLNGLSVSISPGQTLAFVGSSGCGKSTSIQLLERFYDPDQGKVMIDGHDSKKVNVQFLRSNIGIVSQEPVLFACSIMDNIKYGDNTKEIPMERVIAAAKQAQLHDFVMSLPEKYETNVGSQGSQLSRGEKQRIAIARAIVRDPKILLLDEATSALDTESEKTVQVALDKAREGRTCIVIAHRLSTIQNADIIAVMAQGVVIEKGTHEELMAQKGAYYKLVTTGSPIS

OATP1B1 = molecular target: T1, OATP1B1 (Homo sapiens, UniProt Q9Y6L6); details: cited from earlier work
T1 sequence (Q9Y6L6 1-691): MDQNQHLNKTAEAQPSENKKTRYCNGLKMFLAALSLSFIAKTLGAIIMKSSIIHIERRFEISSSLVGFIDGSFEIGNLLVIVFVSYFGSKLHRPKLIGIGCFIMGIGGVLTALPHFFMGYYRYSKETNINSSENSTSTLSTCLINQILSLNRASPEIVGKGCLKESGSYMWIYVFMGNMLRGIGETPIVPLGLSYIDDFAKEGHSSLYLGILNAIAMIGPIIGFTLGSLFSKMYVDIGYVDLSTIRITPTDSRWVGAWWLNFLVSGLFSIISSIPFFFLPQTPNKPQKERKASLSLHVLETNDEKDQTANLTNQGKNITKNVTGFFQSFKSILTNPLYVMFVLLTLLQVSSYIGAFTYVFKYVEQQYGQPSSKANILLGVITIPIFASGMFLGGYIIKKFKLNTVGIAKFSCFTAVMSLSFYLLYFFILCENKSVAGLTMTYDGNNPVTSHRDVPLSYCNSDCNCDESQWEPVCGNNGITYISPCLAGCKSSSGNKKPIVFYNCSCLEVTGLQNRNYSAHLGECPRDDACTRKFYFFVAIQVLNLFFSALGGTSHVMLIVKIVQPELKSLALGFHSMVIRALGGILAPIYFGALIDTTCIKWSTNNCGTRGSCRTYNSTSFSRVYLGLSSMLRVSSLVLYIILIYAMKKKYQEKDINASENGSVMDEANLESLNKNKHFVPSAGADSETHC

[4] = co-administered with SMV; cited from earlier work
[5] = co-administered with SMV; cited from earlier work; remark: listed apart in the source
CYP = CYP inhibition potential; details: any CYP
HCV genotype 3 = experiment: activity against genotype 3 in vitro; design: species or system hepatitis C virus
BCRP = molecular target: T2, BCRP (Homo sapiens, UniProt Q9UNQ0); details: cited from earlier work
T2 sequence (Q9UNQ0 1-655): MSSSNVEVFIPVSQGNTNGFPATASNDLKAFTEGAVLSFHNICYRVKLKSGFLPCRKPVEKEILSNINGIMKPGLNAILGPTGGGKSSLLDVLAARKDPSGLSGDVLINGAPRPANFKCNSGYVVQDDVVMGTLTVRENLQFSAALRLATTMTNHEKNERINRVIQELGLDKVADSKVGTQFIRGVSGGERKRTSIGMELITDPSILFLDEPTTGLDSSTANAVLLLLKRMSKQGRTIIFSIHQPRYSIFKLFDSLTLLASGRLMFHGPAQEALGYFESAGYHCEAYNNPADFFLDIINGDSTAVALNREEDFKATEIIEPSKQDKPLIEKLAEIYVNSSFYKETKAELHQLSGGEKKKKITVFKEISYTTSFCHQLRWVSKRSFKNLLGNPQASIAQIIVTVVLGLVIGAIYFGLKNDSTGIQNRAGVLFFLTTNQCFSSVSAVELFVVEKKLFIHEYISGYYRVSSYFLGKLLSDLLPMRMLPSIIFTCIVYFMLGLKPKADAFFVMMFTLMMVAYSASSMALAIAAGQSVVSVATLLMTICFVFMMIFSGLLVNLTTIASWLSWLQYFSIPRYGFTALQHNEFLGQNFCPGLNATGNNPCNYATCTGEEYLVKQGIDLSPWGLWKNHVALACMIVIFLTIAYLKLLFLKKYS

OATP1B3 = molecular target: T3, OATP1B3 (Homo sapiens, UniProt Q9NPD5); details: cited from earlier work
T3 sequence (Q9NPD5 1-702): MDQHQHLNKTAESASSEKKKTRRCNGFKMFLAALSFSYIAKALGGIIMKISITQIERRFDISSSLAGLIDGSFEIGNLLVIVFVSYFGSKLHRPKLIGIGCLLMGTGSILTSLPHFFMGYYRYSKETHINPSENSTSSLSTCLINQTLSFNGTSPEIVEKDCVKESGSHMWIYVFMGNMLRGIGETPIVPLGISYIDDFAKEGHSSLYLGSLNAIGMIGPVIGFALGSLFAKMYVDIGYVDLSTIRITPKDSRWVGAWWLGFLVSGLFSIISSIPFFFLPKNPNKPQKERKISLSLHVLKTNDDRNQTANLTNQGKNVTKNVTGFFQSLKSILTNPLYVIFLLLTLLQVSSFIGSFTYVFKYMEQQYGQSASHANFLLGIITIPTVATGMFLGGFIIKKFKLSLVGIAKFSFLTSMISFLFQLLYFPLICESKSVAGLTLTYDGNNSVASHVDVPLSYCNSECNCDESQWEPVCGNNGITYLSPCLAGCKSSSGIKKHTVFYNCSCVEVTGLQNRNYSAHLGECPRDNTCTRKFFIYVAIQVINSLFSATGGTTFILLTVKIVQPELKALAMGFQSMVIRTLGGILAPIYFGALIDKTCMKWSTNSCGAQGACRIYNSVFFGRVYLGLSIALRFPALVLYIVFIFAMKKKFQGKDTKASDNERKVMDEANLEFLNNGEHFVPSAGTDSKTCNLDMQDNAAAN

[6] = Arm 1 (reference): single agents
[7] = Arm 4: FDC01 (SMV 100 mg + ODV 50 mg spray dried with copovidone and poloxamers + Compound (III) 800 mg)

In the case of `COc1ccc2c(O[C@@H]3C[C@H]4C(=O)N[C@]5(C(=O)NS(=O)(=O)C6CC6)C[C@H]5/C=C\CCCCN(C)C(=O)[C@@H]4C3)cc(-c3nc(C(C)C)cs3)nc2c1C` [Simeprevir, reference compound], the “effect of Compound (III) on SMV or ODV” value ([1]; DDI study results) is reported as “no apparent effect”, the “increase of exposure caused by Odalasvir” value ([1]; DDI study results) is reported as 1.6 × and the “increase of exposure, effect of the three Compounds” value ([1]; DDI study results) is reported as 1.6 ×. The “increase of exposure on co-administration of Compounds I, II and III” value ([1]; human in vivo study (Example 1)) was 1.6 times, the “effect of Compound (III) on bioavailability of SMV or ODV” value ([1]; human, in vivo) was “does not alter” and the “increase of bioavailability of SMV by ODV” value ([1]; human, in vivo) was 1.6 fold. For the same molecule, the “observed exposures in Cohort 1 / group (i)” value ([2]; Compound (III) 400 mg, ODV 50 mg QD, SMV 100 mg QD) was “higher than anticipated”, the “decrease of SMV exposure on reducing SMV dosing from 100 mg to 75 mg QD” value ([2]; in vivo) was “less than proportionally” and the t1/2term [3, 6] was 8.3 ± 1.8 h. For the same molecule, the t1/2term ([3]; Arm 2: FDC02) was 8.7 ± 2.3 h, the Cmax ([3]; Arm 3: FDC04 (SMV 100 mg + ODV 50 mg spray dried with HPMC-AS L 1/3 w/w + Compound (III) 800 mg)) was 906 ± 321 ng/mL and the AUClast ([3]; Arm 3: FDC04) was 12893 ± 5828 ng·h/mL. For the same molecule, the “AUC∞” value ([3]; Arm 3: FDC04) was 13449 ± 6015 ng·h/mL, the t1/2term ([3]; Arm 3: FDC04) was 9.1 ± 1.6 h and the t1/2term ([3]; Arm 4: FDC01) was 8.5 ± 1.5 h. The “in vitro inhibition of P-gp” value (P-gp) was “strong/moderate”, the “in vitro inhibition of MRP2” value (MRP2) was “strong/moderate” and the “in vitro inhibition of BSEP” value (BSEP) was “strong/moderate”. For the same molecule, the “in vitro inhibition of OATP1B1” value (OATP1B1) was “strong in vitro inhibition”, the “increase in exposure of Digoxin” value [4] was 35% and the “increase in Rosuvastatin exposure” value [5] was 3 fold. For the same molecule, the CYP inhibition potential (CYP) was “limited”.
With `C[C@]1(O)[C@H](n2ccc(=O)[nH]c2=O)O[C@](F)(CO)[C@H]1O` [Compound A-1] the “increase of exposure caused by Odalasvir” value ([1]; DDI study results) was 1.5 ×, the “increase of exposure caused by SMV” value ([1]; DDI study results) was “no apparent effect” and the “change of A-1 exposure on increasing the Compound (III) dose from 400 to 800 mg” value ([2]; in vivo) was “less than proportionally”. The t1/2term [3, 6] was 19.6 ± 2.7 h, the “AUC∞” value ([3]; Arm 2: FDC02) was 4369 ± 1345 ng·h/mL and the t1/2term ([3]; Arm 2: FDC02) was 20.5 ± 3.3 h. For the same molecule, the AUClast ([3]; Arm 3: FDC04) was 4714 ± 1310 ng·h/mL, the t1/2term ([3]; Arm 3: FDC04) was 20.2 ± 3.5 h and the Cmax [3, 7] was 607 ± 208 ng/mL. The AUClast ([3]; Arm 4: FDC01) was 4693 ± 1418 ng·h/mL, the “AUC∞” value ([3]; Arm 4: FDC01) was 4555 ± 787 ng·h/mL and the t1/2term ([3]; Arm 4: FDC01) was 18.3 ± 3.5 h.
In the case of `CC(C)OC(=O)[C@H](C)N[P@](=O)(OC[C@@]1(F)O[C@@H](n2ccc(=O)[nH]c2=O)[C@](C)(O)[C@@H]1O)Oc1ccccc1` [Compound (III), isopropyl ((S)-(((2S,3S,4R,5R)-5-(2,4-dioxo-3,4-dihydropyrimidin-1 (2H)-yl)-2-fluoro-3,4-dihydroxy-4-methyltetrahydrofuran-2-yl)methoxy)(phenoxy)phosphoryl)-L-alaninate], the “increase of exposure caused by Odalasvir” value ([1]; DDI study results) is reported as 4 ×, the “increase of exposure caused by SMV” value ([1]; DDI study results) is reported as 3 × and the “bioavailability when SMV and ODV are co-administered with Compound (III), compared to Compound (III) alone” value ([1]; both, human, in vivo) is reported as “approximately 8 fold”. It also gave a t1/2term [3, 6] of 0.6 ± 0.1 h, a t1/2term ([3]; Arm 2: FDC02) of 0.7 ± 0.2 h and a t1/2term ([3]; Arm 3: FDC04) of 0.7 ± 0.1 h. The t1/2term ([3]; Arm 4: FDC01) was 0.6 ± 0.1 h, the “activity against genotype 3 in vitro” value (HCV genotype 3) was “effective” and the “in vitro inhibition of BCRP” value (BCRP) was “no in vitro inhibition”. The “in vitro inhibition of OATP1B1” value (OATP1B1) was “no in vitro inhibition”, the “in vitro inhibition of OATP1B3” value (OATP1B3) was “no in vitro inhibition” and the CYP inhibition potential (CYP) was “limited”.
For `C[C@H](NP(=O)(O)OC[C@@]1(F)O[C@@H](n2ccc(=O)[nH]c2=O)[C@](C)(O)[C@@H]1O)C(=O)O` [Compound A-3], the “increase of exposure caused by Odalasvir” value ([1]; DDI study results) was 2.6 ×, the “increase of exposure caused by SMV” value ([1]; DDI study results) was 1.6 × and the t1/2term [3, 6] was 2.6 ± 1.4 h. For the same molecule, the AUClast ([3]; Arm 2: FDC02) was 790 ± 157 ng·h/mL, the “AUC∞” value ([3]; Arm 2: FDC02) was 817 ± 133 ng·h/mL and the t1/2term ([3]; Arm 2: FDC02) was 2.3 ± 0.6 h. The t1/2term ([3]; Arm 3: FDC04) was 2.9 ± 1.5 h, the Cmax [3, 7] was 197 ± 62.1 ng/mL and the AUClast ([3]; Arm 4: FDC01) was 909 ± 244 ng·h/mL. For the same molecule, the “AUC∞” value ([3]; Arm 4: FDC01) was 926 ± 245 ng·h/mL and the t1/2term ([3]; Arm 4: FDC01) was 2.5 ± 0.7 h.
